In patent US20060211698A1, “Bicyclic heteroaryl derivatives for treating viruses” (Genelabs, Inc., priority 2005, published 2006):

biological target: T1, HCV-NS5b (Hepatitis C virus genotype 1b, UniProt Q9WMX2); assay: HCV-NS5b Enzyme Assay; type: biochemical; details: 1 μM test compound; incorporation of [3H]-UTP, 37° C., 2 hours
T1 construct: The cloned fragment was missing the C terminus 21 amino acid residues; (His)6 (C); made in house; host or cells: XL-1 cells (E. coli)
How it was run: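 The NS5B construct lacks its C-terminal 21 residues, carries a C-terminal His6 tag and was expressed in E. coli. [^3H]-UTP incorporation on a biotinylated HCV heteropolymeric template (10 ng/μL) with 10 μM each NTP, pH 7.5, 5 mM MgCl2 and 5% DMSO ran 2 h at 37° C and was read by SPA scintillation. IC50s came from 10-point 2-fold series starting at 50 or 2 μM.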

Point of comparison: `Cc1nc(C)c(-c2ccc3cc(-c4c(C5CCCCC5)c5ccc(C(=O)O)cc5n4CC(=O)N4CCC(N5CCOCC5)CC4)ccc3n2)s1` [Compound 278, 3-Cyclohexyl-2-[2-(2,4-dimethyl-thiazol-5-yl)-quinolin-6-yl]-1-[2-(4-morpholin-4-yl-piperidin-1-yl)-2-oxo-ethyl]-1H-indole-6-carboxylic acid], inhibition at 1 µM 91.8%. Against it:
- O=C(O)c1ccc2c(C3CCCCC3)c(-c3ccc(-c4ccccc4)cc3)n(CC(=O)N3CCOCC3)c2c1 [Compound 332, 2-Biphenyl-4-yl-3-cyclohexyl-1-(2-morpholin-4-yl-2-oxo-ethyl)-1H-indole-6-carboxylic acid] — higher, 100%
- COc1ccc(-c2ccc(Cl)cc2)c(-c2ccc3cc(-c4c(C5CCCCC5)c5ccc(C(=O)O)cc5n4CC(=O)N4CCNCC4)ccc3n2)c1 [Compound 204, 1-[N-piperazinylcarbonylmethyl]-2-[2-(4′-chloro-4-methoxy-biphen-2-yl)-quinolin-6-yl]-3-cyclohexyl-1H-indole-6-carboxylic acid] — higher, 95.9%
- O=C(O)c1ccc2c(C3CCCCC3)c(-c3ccc4nc(-c5cccc(Br)c5)ccc4c3)n(CC(=O)N3CCOCC3)c2c1 [Compound 262, 2-[2-(3-Bromo-phenyl)-quinolin-6-yl]-3-cyclohexyl-1-(2-morpholin-4-yl-2-oxo-ethyl)-1H-indole-6-carboxylic acid] — higher, 97.3%
- Cc1nc(C)c(-c2ccc3cc(-c4c(C5CCCCC5)c5ccc(C(=O)O)cc5n4CC(=O)N4C(C)COCC4C)ccc3n2)s1 (stereo not shown) [Compound 279, 3-Cyclohexyl-1-[2-(3,5-dimethyl-morpholin-4-yl)-2-oxo-ethyl]-2-[2-(2,4-dimethyl-thiazol-5-yl)-quinolin-6-yl]-1H-indole-6-carboxylic acid] — higher, 100%
- Cc1ccnc(-c2ccc3cc(-c4c(C5CCCCC5)c5ccc(C(=O)O)cc5n4CC(=O)N4CCOCC4)ccc3n2)c1 [Compound 249, 3-Cyclohexyl-2-[2-(4-methyl-pyridin-2-yl)-quinolin-6-yl]-1-(2-morpholin-4-yl-2-oxo-ethyl)-1H-indole-6-carboxylic acid] — higher, 99.5%
- Cc1ccc(-c2ccc3cc(-c4c(C5CCCCC5)c5ccc(C(=O)O)cc5n4CC(=O)N4CCOCC4)ccc3n2)s1 [Compound 235, 3-Cyclohexyl-2-[2-(5-methyl-thiophen-2-yl)-quinolin-6-yl]-1-(2-morpholin-4-yl-2-oxo-ethyl)-1H-indole-6-carboxylic acid] — higher, 95.5%
- COc1ccc(-c2ccc3cc(-c4c(C5CCCCC5)c5ccc(C(=O)O)cc5n4CC(=O)N4CCOCC4)ccc3n2)cc1 [Compound 254, 3-Cyclohexyl-2-[2-(4-methoxy-phenyl)-quinolin-6-yl]-1-(2-morpholin-4-yl-2-oxo-ethyl)-1H-indole-6-carboxylic acid] — higher, 96.9%
- Cc1cc(-c2ccc3cc(-c4c(C5CCCCC5)c5ccc(C(=O)O)cc5n4CC(=O)N4CCOCC4)ccc3n2)c(C)o1 [Compound 230, 3-Cyclohexyl-2-[2-(2,5-dimethyl-furan-3-yl)-quinolin-6-yl]-1-(2-morpholin-4-yl-2-oxo-ethyl)-1H-indole-6-carboxylic acid] — higher, 92.2%
- O=C(O)c1ccc2c(C3CCCCC3)c(-c3ccc4nc(-c5cccc(OC(F)(F)F)c5)ccc4c3)n(CC(=O)N3CCOCC3)c2c1 [Compound 246, 3-Cyclohexyl-1-(2-morpholin-4-yl-2-oxo-ethyl)-2-[2-(3-trifluoromethoxy-phenyl)-quinolin-6-yl]-1H-indole-6-carboxylic acid] — higher, 96.9%
- CCOc1ncc(-c2ccc3cc(-c4c(C5CCCCC5)c5ccc(C(=O)O)cc5n4CC(=O)N4CCOCC4)ccc3n2)c(C)n1 [Compound 269, 3-Cyclohexyl-2-[2-(2-ethoxy-4-methyl-pyrimidin-5-yl)-quinolin-6-yl]-1-(2-morpholin-4-yl-2-oxo-ethyl)-1H-indole-6-carboxylic acid] — higher, 93.6%
- Cc1noc(C)c1-c1ccc(-c2c(C3CCCCC3)c3ccc(C(=O)O)cc3n2CC(=O)N2CCOCC2)cc1 [Compound 317, 3-Cyclohexyl-2-[4-(3,5-dimethyl-isoxazol-4-yl)-phenyl]-1-(2-morpholin-4-yl-2-oxo-ethyl)-1H-indole-6-carboxylic acid] — higher, 96.7%
- Cc1nc(C)c(C2CCc3cc(-c4c(C5CCCCC5)c5ccc(C(=O)O)cc5n4CC(=O)N4CCOCC4)ccc3N2)s1 (stereo not shown) [Compound 323, 3-Cyclohexyl-2-[2-(2,4-dimethyl-thiazol-5-yl)-1,2,3,4-tetrahydro-quinolin-6-yl]-1-(2-morpholin-4-yl-2-oxo-ethyl)-1H-indole-6-carboxylic acid] — higher, 97.6%
- COc1ccc(-c2ccc3cc(-c4c(C5CCCCC5)c5ccc(C(=O)O)cc5n4CC(=O)N4CCOCC4)ccc3n2)c(OC)c1OC [Compound 272, 3-Cyclohexyl-1-(2-morpholin-4-yl-2-oxo-ethyl)-2-[2-(2,3,4-trimethoxy-phenyl)-quinolin-6-yl]-1H-indole-6-carboxylic acid] — higher, 101%
- Cc1nccnc1-c1ccc2cc(-c3c(C4CCCCC4)c4ccc(C(=O)O)cc4n3CC(=O)N3CCOCC3)ccc2n1 [Compound 268, 3-Cyclohexyl-2-[2-(3-methyl-pyrazin-2-yl)-quinolin-6-yl]-1-(2-morpholin-4-yl-2-oxo-ethyl)-1H-indole-6-carboxylic acid] — higher, 96.1%
- Cc1nc(C)c(-c2ccc3cc(-c4c(C5CCCCC5)c5ccc(C(=O)O)cc5n4CC(=O)N4CCOCC4)cnc3n2)s1 [Compound 319, 3-Cyclohexyl-2-[7-(2,4-dimethyl-thiazol-5-yl)-[1,8]naphthyridin-3-yl]-1-(2-morpholin-4-yl-2-oxo-ethyl)-1H-indole-6-carboxylic acid] — lower, 74.3%
- COc1cccc(-c2ccc(-c3c(C4CCCCC4)c4ccc(C(=O)O)cc4n3CC(=O)N3CCOCC3)cc2)c1 [Compound 309, 3-Cyclohexyl-2-(3′-methoxy-biphenyl-4-yl)-1-(2-morpholin-4-yl-2-oxo-ethyl)-1H-indole-6-carboxylic acid] — higher, 98.8%
- Cc1nc(C)c(-c2nc3ccc(-c4cc5ccc(C(=O)O)cc5n4CC(=O)N4CCCCC4)cc3cc2C2CCCCC2)s1 [Compound 216, 1-(2-oxo-2-piperidin-1-yl-ethyl)-2-[2-(2,4-dimethylthiazol-5-yl)-3-cyclohexylquinolin-6-yl]-1H-indole-6-carboxylic acid] — higher, 98.8%
- O=C(O)c1ccc2c(C3CCCCC3)c(-c3ccc4nc(-c5cccc(C(F)(F)F)c5)ccc4c3)n(CC(=O)N3CCOCC3)c2c1 [Compound 247, 3-Cyclohexyl-1-(2-morpholin-4-yl-2-oxo-ethyl)-2-[2-(3-trifluoromethyl-phenyl)-quinolin-6-yl]-1H-indole-6-carboxylic acid] — higher, 98.4%
- O=C(O)c1ccc2c(C3CCCCC3)c(-c3ccc4cc(-c5ccccc5F)ccc4c3)n(CC(=O)N3CCOCC3)c2c1 [Compound 322, 3-Cyclohexyl-2-[6-(2-fluoro-phenyl)-naphthalen-2-yl]-1-(2-morpholin-4-yl-2-oxo-ethyl)-1H-indole-6-carboxylic acid] — higher, 95.1%
- COc1ccc(-c2ccc3cc(-c4c(C5CCCCC5)c5ccc(C(=O)O)cc5n4CC(=O)N4CCOCC4)ccc3n2)cc1OC [Compound 253, 3-Cyclohexyl-2-[2-(3,4-dimethoxy-phenyl)-quinolin-6-yl]-1-(2-morpholin-4-yl-2-oxo-ethyl)-1H-indole-6-carboxylic acid] — higher, 97.5%
- O=C(O)c1ccc2c(C3CCCCC3)c(-c3ccc4nc(-c5cncs5)ccc4c3)n(CC(=O)N3CCOCC3)c2c1 [Compound 331, 3-Cyclohexyl-1-(2-morpholin-4-yl-2-oxo-ethyl)-2-(2-thiazol-5-yl-quinolin-6-yl)-1H-indole-6-carboxylic acid] — higher, 97%
- O=C(O)c1ccc2c(C3CCCCC3)c(-c3ccc(-c4ccc5cc(Br)ccc5n4)cc3)n(CC(=O)N3CCOCC3)c2c1 [Compound 298, 2-[4-(6-Bromo-quinolin-2-yl)-phenyl]-3-cyclohexyl-1-(2-morpholin-4-yl-2-oxo-ethyl)-1H-indole-6-carboxylic acid] — higher, 101%
- Cc1nc(C)c(-c2ccc3cc(-c4c(C5CCCCC5)c5ccc(C(=O)O)cc5n4CCN4CCOCC4)ccc3n2)s1 [Compound 290, 3-Cyclohexyl-2-[2-(2,4-dimethyl-thiazol-5-yl)-quinolin-6-yl]-1-(2-morpholin-4-yl-ethyl)-1H-indole-6-carboxylic acid] — lower, 79.1%

Point of comparison: `O=C(O)c1ccc2c(C3CCCCC3)c(-c3ccc4nc(-c5cccs5)ccc4c3)n(CC(=O)N3CCOCC3)c2c1` [Compound 224, 1-[N-morpholinocarbonylmethyl]-2-[2-thien-2-ylquinolin-6-yl]-3-cyclohexyl-1H-indole-6-carboxylic acid], “% inhibition @ 1 μM” value 98.2%. Against it:
- O=C(O)c1ccc2c(C3CCCCC3)c(-c3ccc4nc(-c5nccs5)ccc4c3)n(CC(=O)N3CCOCC3)c2c1 [Compound 227, 1-[N-morpholinocarbonylmethyl]-2-[2-thiazol-2-ylquinolin-6-yl]-3-cyclohexyl-1H-indole-6-carboxylic acid] — higher, 98.4%
- Cc1nc(C)c(-c2ccc3cc(-c4c(C5CCCCC5)c5ccc(C(=O)O)cc5n4CC(=O)NCC(=O)O)ccc3n2)s1 [Compound 213, 1-[(N-carboxymethycarbamoyl)-methyl]-[2-(2,4-dimethyl-thiazol-5-yl)-quinolin-6-yl]-3-cyclohexyl-1H-indole-6-carboxylic acid] — lower, 92.1%
- O=C(O)c1ccc2c(C3CCCCC3)c(-c3ccc4nc(-c5ccccn5)ccc4c3)n(CC(=O)N3CCOCC3)c2c1 [Compound 217, 1-[N-morpholinocarbonylmethyl]-2-[2-(pyrid-2-yl)-quinolin-6-yl]-3-cyclohexyl-1H-indole-6-carboxylic acid] — lower, 98.0%
